Literature values in patent US12633379B2, “Visible neural network framework” (priority 2020, dated 2026).

Test system: 39 human cancer cell lines
[1] = across the majority of cell lines tested in DeepSynergy, partners in FIG. 5F: MK2206, PD325901

## COc1cc([C@@H]2c3cc4c(cc3[C@@H](O[C@@H]3O[C@@H]5CO[C@@H](C)O[C@H]5[C@H](O)[C@H]3O)[C@H]3COC(=O)[C@H]23)OCO4)cc(OC)c1O [etoposide]
[1]
  Loewe synergy in combination with AKT inhibition: synergized strongly
  Loewe synergy in combination with MEK inhibition: synergized strongly
Combined with the proteasome inhibitor bortezomib, DeepSynergy cell line panel, FIG. 12A, FIG. 5F
  Loewe synergy in combination with bortezomib: did not synergize
